Patent US9149038B2, “4-amino-6-(heterocyclic)picolinates and 6-amino-2-(heterocyclic)pyrimidine-4-carboxylates and their use as herbicides” (Dow AgroSciences LLC, priority 2013, dated 2015)
Like-named read-outs stand apart in the source and are kept apart here.

Assays:
Format in all cases: in vivo
[1] = tested on: Key Grass and Sedge Weeds as well as Grass Crops; experiment: Post-Emergent Test II: postemergent herbicidal activity, visual rating after 14 d (Table 8); conditions: post-emergence, 336 h; for pest or weed control at 35 g/ha: 35 g ai/ha; for pest or weed control at 70 g/ha: 70 g ai/ha; for pest or weed control at 140 g/ha: 140 g ai/ha
Outline: (§1)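 Visual 0-100% injury score (0 no injury, 100 complete kill) at 14 d post-spray, relative to untreated plants. Seedlings at 1st-2nd true leaf stage; track sprayer at 187 L/ha, highest rate plus ½×, ¼×, ⅛×, 1/16× serial dilutions. Subirrigated after treatment.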

[2] = tested on: Key Broadleaf and Grass Weed as well as Crop Species; experiment: Post-Emergent Test I: postemergent herbicidal activity, visual phytotoxicity rating 10 days after treatment (Table 5); conditions: 3.96 kg ai/ha; for pest or weed control at 3960 g/ha: post-emergence, 240 h, 10 days after application
Outline: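 Plants grown 8-12 d in greenhouse (16 h photoperiod, 24-29° C.) before spraying compounds in acetone-DMSO/water-isopropanol-crop oil concentrate with 0.02% Triton X-155 at roughly 4.0, 2.0, 1.0 and 0.5 kg/ha. Injury scored visually 10 days after treatment, 0 (no activity) to 100 (complete plant death).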

[3] = tested on: Key Broadleaf Weed and Crop Species; experiment: Post-Emergent Test II: postemergent herbicidal activity, visual rating after 14 d (Table 7); conditions: post-emergence, 336 h; for pest or weed control at 35 g/ha: 35 g ai/ha; for pest or weed control at 70 g/ha: 70 g ai/ha; for pest or weed control at 140 g/ha: 140 g ai/ha
Outline: as §1

[4] = barnyardgrass (Echinochloa crus-galli), read-out: Visual Growth Reduction (%) 14 Days After Application ECHCG
[5] = giant foxtail (Setaria faberi), read-out: Visual Growth Reduction (%) 14 Days After Application SETFA
[6] = maize, corn (Zea mays), read-out: Visual Growth Reduction (%) 14 Days After Application ZEAMX
[7] = rice (Oryza sativa), read-out: Visual Growth Reduction (%) 14 Days After Application ORYSA
[8] = wheat, spring (Triticum aestivum), read-out: Visual Growth Reduction (%) 14 Days After Application TRZAS
[9] = yellow nutsedge (Cyperus esculentus), read-out: Visual Growth Reduction (%) 14 Days After Application CYPES
[10] = giant foxtail (Setaria faberi), read-out: Visual Growth Reduction (%) 10 Days After Application SETFA
[11] = ivyleaf morningglory (Ipomoea hederecea), read-out: Visual Growth Reduction (%) 10 Days After Application IPOHE
[12] = sunflower (Helianthus annuus), read-out: Visual Growth Reduction (%) 10 Days After Application HELAN
[13] = wild oats (Avena fatua), read-out: Visual Growth Reduction (%) 10 Days After Application AVEFA
[14] = lambsquarters (Chenopodium album), read-out: Visual Growth Reduction (%) 14 Days After Application CHEAL
[15] = oilseed rape, canola (Brassica napus), read-out: Visual Growth Reduction (%) 14 Days After Application BRSNN
[16] = redroot pigweed (Amaranthus retroflexus), read-out: Visual Growth Reduction (%) 14 Days After Application AMARE
[17] = sunflower (Helianthus annuus), read-out: Visual Growth Reduction (%) 14 Days After Application HELAN
[18] = velvetleaf (Abutilon theophrasti), read-out: Visual Growth Reduction (%) 14 Days After Application ABUTH
[19] = wild poinsettia (Euphorbia heterophylla), read-out: Visual Growth Reduction (%) 14 Days After Application EPHHL

## COC(=O)c1nc(-c2cccc3c2OC(F)(F)O3)c(F)c(N)c1Cl [Compound 73]
[1]; [4]
  pest or weed control at 35 g/ha: 0 to 29%
  pest or weed control at 70 g/ha: 0 to 29%
  pest or weed control at 140 g/ha: 0 to 29%
[1]; [5]
  pest or weed control at 35 g/ha: 0 to 29%
  pest or weed control at 70 g/ha: 0 to 29%
  pest or weed control at 140 g/ha: 0 to 29%
[1]; [6]
  pest or weed control at 35 g/ha: 0 to 29%
  pest or weed control at 70 g/ha: 0 to 29%
  pest or weed control at 140 g/ha: 0 to 29%
[1]; [7]
  pest or weed control at 35 g/ha: 0 to 29%
  pest or weed control at 70 g/ha: 0 to 29%
  pest or weed control at 140 g/ha: 0 to 29%
[1]; [8]
  pest or weed control at 35 g/ha: 0 to 29%
  pest or weed control at 70 g/ha: 0 to 29%
  pest or weed control at 140 g/ha: 0 to 29%
[1]; [9]
  pest or weed control at 35 g/ha: 0 to 29%
  pest or weed control at 70 g/ha: 45 to 59%
  pest or weed control at 140 g/ha: 45 to 59%
[2]; barnyardgrass (Echinochloa crus-galli)
  Visual Growth Reduction (%) 10 Days After Application ECHCG: G (0-29)
[2]; [10]
  pest or weed control at 3960 g/ha: 0 to 29%
[2]; [11]
  pest or weed control at 3960 g/ha: 75 to 84%
[2]; [12]
  pest or weed control at 3960 g/ha: 95 to 100%
[2]; [13]
  pest or weed control at 3960 g/ha: 0 to 29%
[3]; [14]
  pest or weed control at 35 g/ha: 95 to 100%
  pest or weed control at 70 g/ha: 95 to 100%
  pest or weed control at 140 g/ha: 95 to 100%
[3]; [15]
  pest or weed control at 35 g/ha: 85 to 94%
  pest or weed control at 70 g/ha: 95 to 100%
  pest or weed control at 140 g/ha: 95 to 100%
[3]; [16]
  pest or weed control at 35 g/ha: 95 to 100%
  pest or weed control at 70 g/ha: 95 to 100%
  pest or weed control at 140 g/ha: 95 to 100%
[3]; [17]
  pest or weed control at 35 g/ha: 75 to 84%
  pest or weed control at 70 g/ha: 85 to 94%
  pest or weed control at 140 g/ha: 95 to 100%
[3]; [18]
  pest or weed control at 35 g/ha: 75 to 84%
  pest or weed control at 70 g/ha: 75 to 84%
  pest or weed control at 140 g/ha: 85 to 94%
[3]; [19]
  pest or weed control at 35 g/ha: 0 to 29%
  pest or weed control at 70 g/ha: 0 to 29%
  pest or weed control at 140 g/ha: 0 to 29%

## Nc1c(F)c(-c2cccc3c2OC(F)(F)O3)nc(C(=O)O)c1Cl [Compound 74]
[1]; [4]
  pest or weed control at 35 g/ha: 0 to 29%
  pest or weed control at 70 g/ha: 0 to 29%
  pest or weed control at 140 g/ha: 0 to 29%
[1]; [5]
  pest or weed control at 35 g/ha: 0 to 29%
  pest or weed control at 70 g/ha: 0 to 29%
  pest or weed control at 140 g/ha: 0 to 29%
[1]; [7]
  pest or weed control at 35 g/ha: 0 to 29%
  pest or weed control at 70 g/ha: 0 to 29%
  pest or weed control at 140 g/ha: 0 to 29%
[1]; [8]
  pest or weed control at 35 g/ha: 0 to 29%
  pest or weed control at 70 g/ha: 0 to 29%
  pest or weed control at 140 g/ha: 0 to 29%
[1]; [9]
  pest or weed control at 35 g/ha: 0 to 29%
  pest or weed control at 70 g/ha: 0 to 29%
  pest or weed control at 140 g/ha: 0 to 29%
[2]; [10]
  pest or weed control at 3960 g/ha: 0 to 29%
[2]; [11]
  pest or weed control at 3960 g/ha: 60 to 74%
[2]; [12]
  pest or weed control at 3960 g/ha: 95 to 100%
[2]; [13]
  pest or weed control at 3960 g/ha: 0 to 29%
[3]; [14]
  pest or weed control at 35 g/ha: 85 to 94%
  pest or weed control at 70 g/ha: 95 to 100%
  pest or weed control at 140 g/ha: 95 to 100%
[3]; [15]
  pest or weed control at 35 g/ha: 75 to 84%
  pest or weed control at 70 g/ha: 85 to 94%
  pest or weed control at 140 g/ha: 95 to 100%
[3]; [16]
  pest or weed control at 35 g/ha: 95 to 100%
  pest or weed control at 70 g/ha: 95 to 100%
  pest or weed control at 140 g/ha: 95 to 100%
[3]; [17]
  pest or weed control at 35 g/ha: 75 to 84%
  pest or weed control at 70 g/ha: 75 to 84%
  pest or weed control at 140 g/ha: 85 to 94%
[3]; [18]
  pest or weed control at 35 g/ha: 0 to 29%
  pest or weed control at 70 g/ha: 30 to 44%
  pest or weed control at 140 g/ha: 45 to 59%
[3]; [19]
  pest or weed control at 35 g/ha: 0 to 29%
  pest or weed control at 70 g/ha: 0 to 29%
  pest or weed control at 140 g/ha: 0 to 29%
